# Measured values as given in ChEMBL document CHEMBL1201862, “PubChem BioAssay data set” (2004).
#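 Following 48 hours of exposure in 96-well plates, responses at five concentrations were used to interpolate endpoints linearly. The concentration for 50% growth inhibition is given as GI50.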 Calls of active or inactive are those of the source. Rule as the data show it: active = GI50 up to about 1.1 µM and inactive = higher.
# Key:
# Test in all cases: DTP human tumour cell line panel, 48 h
# NCI-H460 = system: NCI-H460
# DLD-1 = system: DLD-1
# SNB-78 = system: SNB-78
# XF498 = system: XF498
# UACC-62 = system: UACC-62
# Malme-3M = system: Malme-3M
# SK-MEL-5 = system: SK-MEL-5
# HCC 2998 = system: HCC 2998
# OVCAR-3 = system: OVCAR-3
# OVCAR-5 = system: OVCAR-5
# SK-MEL-28 = system: SK-MEL-28
# KM-20L2 = system: KM-20L2
# HOP-62 = system: HOP-62
# TK-10 = system: TK-10
# NCI-H23 = system: NCI-H23
# OVCAR-8 = system: OVCAR-8
# 786-0 = system: 786-0
# IGROV-1 = system: IGROV-1
# SR = system: SR
# ACHN = system: ACHN
# M19-MEL = system: M19-MEL
# UO-31 = system: UO-31
# NCI-H522 = system: NCI-H522
# UACC-257 = system: UACC-257
# LXFL 529 = system: LXFL 529
# SN12C = system: SN12C
# A498 = system: A498
# HCT-15 = system: HCT-15
# A549 = system: A549
# RPMI-8226 = system: RPMI-8226
# SF-295 = system: SF-295
# HT-29 = system: HT-29
# HL-60 = system: HL-60
# SK-MEL-2 = system: SK-MEL-2
# SK-OV-3 = system: SK-OV-3
# OVCAR-4 = system: OVCAR-4
# RXF 631 = system: RXF 631
# COLO 205 = system: COLO 205
# HCT-116 = system: HCT-116
# CCRF-CEM = system: CCRF-CEM
# KM12 = system: KM12
# U-251 = system: U-251
# HOP-92 = system: HOP-92
# EKVX = system: EKVX
# SF-539 = system: SF-539
# SNB-19 = system: SNB-19
# MOLT-4 = system: MOLT-4
# RXF 393 = system: RXF 393
# SNB-75 = system: SNB-75
# SF-268 = system: SF-268
# DMS-114 = system: DMS-114
# SW-620 = system: SW-620
# DMS-273 = system: DMS-273
# M14 = system: M14
# LOX IMVI = system: LOX IMVI
# K562 = system: K562
# DU-145 = system: DU-145
# MCF7 = system: MCF7
# BT-549 = system: BT-549
# T47D = system: T47D
# MDA-N = system: MDA-N
# PC-3 = system: PC-3
# Hs-578T = system: Hs-578T
# HOP-18 = system: HOP-18
# MDA-MB-435 = system: MDA-MB-435
# NCI/ADR-RES = system: NCI/ADR-RES
# CAKI-1 = system: CAKI-1
# NCI-H226 = system: NCI-H226
smiles,measurement,setting,value
O=C(O)c1oc2cccc3c2c1CCC3,GI50,NCI-H460,> 100 µM (inactive)
same,GI50,DLD-1,> 100 µM (inactive)
same,GI50,SNB-78,> 100 µM (inactive)
same,GI50,XF498,> 100 µM (inactive)
same,GI50,UACC-62,41.7 µM (inactive)
same,GI50,Malme-3M,> 100 µM (inactive)
same,GI50,SK-MEL-5,> 100 µM (inactive)
same,GI50,HCC 2998,> 100 µM (inactive)
same,GI50,OVCAR-3,> 100 µM (inactive)
same,GI50,OVCAR-5,> 100 µM (inactive)
same,GI50,SK-MEL-28,> 100 µM (inactive)
same,GI50,KM-20L2,> 10 µM (inactive)
same,GI50,HOP-62,> 100 µM (inactive)
same,GI50,TK-10,> 100 µM (inactive)
same,GI50,NCI-H23,> 100 µM (inactive)
same,GI50,OVCAR-8,> 100 µM (inactive)
same,GI50,786-0,> 100 µM (inactive)
same,GI50,IGROV-1,> 100 µM (inactive)
same,GI50,SR,> 100 µM (inactive)
same,GI50,ACHN,> 100 µM (inactive)
same,GI50,M19-MEL,> 100 µM (inactive)
same,GI50,UO-31,12.8 µM (inactive)
same,GI50,NCI-H522,> 100 µM (inactive)
same,GI50,UACC-257,> 100 µM (inactive)
same,GI50,LXFL 529,> 100 µM (inactive)
same,GI50,SN12C,> 100 µM (inactive)
same,GI50,A498,> 100 µM (inactive)
same,GI50,HCT-15,> 100 µM
same,GI50,A549,> 100 µM (inactive)
same,GI50,RPMI-8226,> 100 µM (inactive)
same,GI50,SF-295,> 100 µM (inactive)
same,GI50,HT-29,> 100 µM (inactive)
same,GI50,HL-60,> 100 µM (inactive)
same,GI50,SK-MEL-2,> 100 µM (inactive)
same,GI50,SK-OV-3,> 100 µM (inactive)
same,GI50,OVCAR-4,> 100 µM (inactive)
same,GI50,RXF 631,> 100 µM (inactive)
same,GI50,COLO 205,> 100 µM (inactive)
same,GI50,HCT-116,> 100 µM (inactive)
same,GI50,CCRF-CEM,> 100 µM (inactive)
same,GI50,KM12,> 100 µM (inactive)
same,GI50,U-251,> 100 µM (inactive)
same,GI50,HOP-92,> 100 µM (inactive)
same,GI50,EKVX,> 100 µM (inactive)
same,GI50,SF-539,> 100 µM (inactive)
same,GI50,SNB-19,> 100 µM (inactive)
same,GI50,MOLT-4,> 100 µM (inactive)
same,GI50,RXF 393,> 100 µM (inactive)
same,GI50,SNB-75,99.3 µM (inactive)
same,GI50,SF-268,> 100 µM (inactive)
same,GI50,DMS-114,> 100 µM (inactive)
same,GI50,SW-620,> 100 µM (inactive)
same,GI50,DMS-273,> 100 µM (inactive)
same,GI50,M14,> 100 µM (inactive)
same,GI50,LOX IMVI,> 100 µM (inactive)
same,GI50,K562,> 100 µM (inactive)
CC(=O)OCC1OC(n2c(=S)n(-c3ccc([N+](=O)[O-])cc3)c(=O)c3ccccc32)C(OC(C)=O)C(OC(C)=O)C1OC(C)=O (stereo not drawn),GI50,NCI-H460,21.7 µM (inactive)
same,GI50,DU-145,24.9 µM (inactive)
same,GI50,MCF7,16.7 µM (inactive)
same,GI50,UACC-62,15.7 µM (inactive)
same,GI50,Malme-3M,15.2 µM (inactive)
same,GI50,OVCAR-3,17.1 µM (inactive)
same,GI50,BT-549,2.69 µM (inactive)
same,GI50,KM-20L2,28.3 µM (inactive)
same,GI50,HOP-62,21.6 µM (inactive)
same,GI50,NCI-H23,21.3 µM (inactive)
same,GI50,OVCAR-8,20.1 µM (inactive)
same,GI50,786-0,15.3 µM (inactive)
same,GI50,T47D,17.3 µM (inactive)
same,GI50,MDA-N,27.7 µM (inactive)
same,GI50,NCI-H522,15.4 µM (inactive)
same,GI50,SN12C,19.1 µM (inactive)
same,GI50,A498,25.5 µM (inactive)
same,GI50,HCT-15,29.3 µM
same,GI50,SF-295,23.3 µM (inactive)
same,GI50,PC-3,15.8 µM (inactive)
same,GI50,HT-29,21 µM (inactive)
same,GI50,Hs-578T,4.46 µM (inactive)
same,GI50,SK-OV-3,23.3 µM (inactive)
same,GI50,OVCAR-4,20.8 µM (inactive)
same,GI50,RXF 631,19.2 µM (inactive)
same,GI50,COLO 205,27.5 µM (inactive)
same,GI50,HOP-18,13.4 µM (inactive)
same,GI50,U-251,18.4 µM (inactive)
same,GI50,HOP-92,25.5 µM (inactive)
same,GI50,SF-539,14.3 µM (inactive)
same,GI50,SNB-19,19.9 µM (inactive)
same,GI50,MOLT-4,8.22 µM (inactive)
same,GI50,SF-268,18.5 µM (inactive)
same,GI50,MDA-MB-435,27 µM (inactive)
same,GI50,DMS-273,21.9 µM (inactive)
same,GI50,LOX IMVI,13.2 µM (inactive)
same,GI50,NCI/ADR-RES,30.7 µM (inactive)
CCCCCC(=O)Cc1cc(OC)cc2c1C(=O)Oc1cc(O)c(C(=O)O)c(CC(=O)CCCCC)c1O2,GI50,NCI-H460,52.5 µM (inactive)
same,GI50,DLD-1,35.6 µM (inactive)
same,GI50,SNB-78,44.4 µM (inactive)
same,GI50,XF498,> 100 µM (inactive)
same,GI50,UACC-62,20.6 µM (inactive)
same,GI50,Malme-3M,51.4 µM (inactive)
same,GI50,SK-MEL-5,> 100 µM (inactive)
same,GI50,HCC 2998,48.5 µM (inactive)
same,GI50,OVCAR-3,24 µM (inactive)
same,GI50,OVCAR-5,> 100 µM (inactive)
same,GI50,KM-20L2,49.4 µM (inactive)
same,GI50,HOP-62,> 100 µM (inactive)
same,GI50,TK-10,63.4 µM (inactive)
same,GI50,NCI-H23,19.2 µM (inactive)
same,GI50,OVCAR-8,47.1 µM (inactive)
same,GI50,786-0,18.9 µM (inactive)
same,GI50,IGROV-1,39.4 µM (inactive)
same,GI50,SR,52.6 µM (inactive)
same,GI50,ACHN,35.7 µM (inactive)
same,GI50,M19-MEL,26.2 µM (inactive)
same,GI50,NCI-H522,46.3 µM (inactive)
same,GI50,UACC-257,71.4 µM (inactive)
same,GI50,LXFL 529,55.5 µM (inactive)
same,GI50,SN12C,> 10 µM (inactive)
same,GI50,A498,39 µM (inactive)
same,GI50,A549,43.2 µM (inactive)
same,GI50,RPMI-8226,42 µM (inactive)
same,GI50,SF-295,55.3 µM (inactive)
same,GI50,HT-29,41.2 µM (inactive)
same,GI50,HL-60,38.9 µM (inactive)
same,GI50,SK-OV-3,46.9 µM (inactive)
same,GI50,CAKI-1,> 100 µM (inactive)
same,GI50,RXF 631,35.6 µM (inactive)
same,GI50,COLO 205,45 µM (inactive)
same,GI50,HCT-116,26 µM (inactive)
same,GI50,CCRF-CEM,40.7 µM (inactive)
same,GI50,KM12,46.5 µM (inactive)
same,GI50,U-251,15.8 µM (inactive)
same,GI50,EKVX,33.1 µM (inactive)
same,GI50,SF-539,> 10 µM (inactive)
same,GI50,MOLT-4,27.2 µM (inactive)
same,GI50,SNB-75,55.7 µM (inactive)
same,GI50,SF-268,35.2 µM (inactive)
same,GI50,DMS-114,33.9 µM (inactive)
same,GI50,SW-620,> 100 µM (inactive)
same,GI50,DMS-273,32.1 µM (inactive)
same,GI50,M14,63.2 µM (inactive)
same,GI50,NCI-H226,> 100 µM (inactive)
same,GI50,LOX IMVI,77.8 µM (inactive)
same,GI50,K562,30.6 µM (inactive)
